Data from patent US20100233278A1, “RAPIDLY DISINTEGRATING SOLID PREPARATION” (priority 2007, published 2010).

Test: dissolution rate of saccharide or sugar alcohol, 6-vessel dissolution tester
Assay type: physicochemical
Conditions: 2 g in desalted water 500 mL, 37° C., paddle 50 min^−1; rate constant k per surface area
Protocol: In the present invention, the “dissolution rate” is obtained by using a 6-vessel dissolution tester (NTR-6100, Toyama Sangyo Co., Ltd.). The paddle rotation speed was 50 min^−1, and saccharide or sugar alcohol was added by 2 g to desalted water (500 mL), which is a test solution, heated to 37° C. Samples were taken at given time intervals after addition, changes in the dry weight of the samples per unit time were calculated, and dissolution rate constant k was calculated by the Noyes-Whitney equation. The dissolution rate constant k was converted to value per surface area of each saccharide or sugar alcohol and the obtained value was taken as dissolution rate [1/min·m^2]. As the specific surface area, the value measured by a laser diffraction particle size analyzer [Mastersizer] of Malvern Instruments Ltd. was used. The tablets obtained in the Examples and Comparative Examples were measured for hardness, disintegration time in the oral cavity, disintegration time (ODT) by the following test methods. In addition, the dissolution rate of saccharide and sugar alcohol used in the Examples and Comparative Examples was measured. • (1) The hardness was measured by a tablet hardness tester (WHT-2ME, Pharma Test). The test was performed using 3 or 10 tablets, and the average value is shown. • (2) As for the disintegration time in the oral cavity, the tablet of the present invention was placed in the oral cavity of a healthy adult without water, and the time necessary for complete disintegration of the tablet with only saliva was measured. • (3) The disintegration time (ODT) was measured by an Orally Disintegrating Tablet Tester (ODT-101, Toyama Sangyo Co., Ltd.). As for the measurement conditions, a weight (15 g, weight diameter 15 mm) was used at a rotating speed of 50 rpm, and an average of 3 measures was taken. • (4) The “dissolution rate” was measured by using a 6-vessel dissolution tester (NTR-6100, Toyama Sangyo Co., Ltd.). The paddle rotation speed was 50 min^−1, and saccharide or sugar alcohol was added by 2 g to desalted water (500 mL), which is a test solution, heated to 37° C. Samples were taken at given time intervals after addition, changes in the dry weight of the samples per unit time were calculated, and dissolution rate constant k was calculated by the Noyes-Whitney equation. The dissolution rate constant k was converted to value per the surface area of each saccharide or sugar alcohol and the obtained value was taken as dissolution rate [1/min·m^2]. As the specific surface area, the value measured by a laser diffraction particle size analyzer [Mastersizer] of Malvern Instruments Ltd. was used.

| dissolution rate | Structure (SMILES) |
| --- | --- |
| 5.68 1/min·m^2 | OC[C@H]1O[C@@H](O[C@H]2[C@H](O)[C@@H](O)C(O)O[C@@H]2CO)[C@H](O)[C@@H](O)[C@H]1O (stereo partly drawn) [Lactose] |
| 2.80 1/min·m^2 | OC[C@H]1O[C@@](CO)(O[C@H]2O[C@H](CO)[C@@H](O)[C@H](O)[C@H]2O)[C@@H](O)[C@@H]1O [Purification sucrose] |
| 2.28 1/min·m^2 | OC[C@@H](O)[C@@H](O)[C@H](O)[C@H](O)CO [β-form mannitol] |

Second part, the compound before the results:

| Structure (SMILES) | dissolution rate |
| --- | --- |
| OC[C@@H](O)[C@@H](O)CO [Erythritol] | 11.99 1/min·m^2 |
| OC[C@@H](O)[C@H](O)[C@@H](O)CO [Xylitol] | 3.57 1/min·m^2 |
| OC[C@@H](O)[C@@H](O)[C@H](O)[C@H](O)CO [α-form mannitol] | 4.62 1/min·m^2 |
